Experimental data: PubChem BioAssay (NCI)
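96-well plates; 48 h exposure; 5 concentrations. Endpoints by linear interpolation between flanking doses. Not reached: highest tested concentration assigned. GI50: concentration for 50% inhibition of growth. TGI: total growth inhibition.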

How the values were obtained:
Test in all cases: NCI-60 cell line screen, 48 h
[1] = system: SNB-19 CNS
[2] = system: IGROV1 ovarian
[3] = system: NCI-H226 lung
[4] = system: SK-MEL-5 melanoma
[5] = system: HS 578T breast
[6] = system: MDA-MB-231 breast
[7] = system: ACHN renal
[8] = system: UO-31 renal
[9] = system: SNB-75 CNS
[10] = system: 786-0 renal
[11] = system: SF-539 CNS
[12] = system: T-47D breast
[13] = system: SN12C renal
[14] = system: CAKI-1 renal
[15] = system: OVCAR-4 ovarian
[16] = system: SK-MEL-28 melanoma
[17] = system: KM12 colon
[18] = system: UACC-62 melanoma
[19] = system: COLO 205 colon
[20] = system: NCI-H460 lung
[21] = system: MALME-3M melanoma
[22] = system: HOP-92 NSCLC
[23] = system: SK-MEL-2 melanoma
[24] = system: MCF7 breast
[25] = system: MDA-MB-435
[26] = system: PC-3 prostate
[27] = system: M14 melanoma
[28] = system: K-562 leukemia
[29] = system: EKVX NSCLC
[30] = system: OVCAR-8 ovarian
[31] = system: SK-OV-3 ovarian
[32] = system: CCRF-CEM leukemia
[33] = system: UACC-257 melanoma
[34] = system: BT-549 breast
[35] = system: NCI-H23 lung
[36] = system: HCT-116 colon
[37] = system: A498 renal
[38] = system: TK-10 renal
[39] = system: RXF 393 renal
[40] = system: NCI-H522 lung
[41] = system: RPMI-8226 leukemia
[42] = system: HCC-2998 colon
[43] = system: SF-295 CNS
[44] = system: HOP-62 NSCLC
[45] = system: MDA-MB-468 breast
[46] = system: OVCAR-5 ovarian
[47] = system: U251 CNS
[48] = system: A549 NSCLC
[49] = system: HCT-15 colon
[50] = system: HT29 colon
[51] = system: LOX IMVI melanoma
[52] = system: SF-268 CNS
[53] = system: MOLT-4 leukemia
[54] = system: SR leukemia
[55] = system: OVCAR-3 ovarian
[56] = system: SW-620 colon
[57] = system: HL-60(TB) leukemia
[58] = system: DU-145 prostate

Compound: O=c1[nH]n(C(=S)N/N=C/c2ccccc2Cl)c(=O)c2ccccc12
- GI50 [1]: 3.87 µM
- TGI [1]: 14.3 µM
- GI50 [2]: 3.42 µM
- TGI [2]: 11.5 µM
- GI50 [3]: 2.88 µM
- TGI [3]: 8.54 µM
- GI50 [4]: 3.03 µM
- TGI [4]: 11.9 µM
- GI50 [5]: 2.65 µM
- TGI [5]: 9.55 µM
- GI50 [6]: 2.99 µM
- TGI [6]: 8.61 µM
- GI50 [7]: 3.64 µM
- TGI [7]: 12.8 µM
- GI50 [8]: 3.78 µM
- TGI [8]: 15 µM
- GI50 [9]: 2.08 µM
- TGI [9]: 8.43 µM
- GI50 [10]: 4.43 µM
- TGI [10]: 16 µM
- GI50 [11]: 2.56 µM
- TGI [11]: 6.26 µM
- GI50 [12]: 2.55 µM
- TGI [12]: 8.92 µM
- GI50 [13]: 3.01 µM
- TGI [13]: 10.1 µM
- GI50 [14]: 3.7 µM
- TGI [14]: 15.5 µM
- GI50 [15]: 4.46 µM
- TGI [15]: 16.6 µM
- GI50 [16]: 4.6 µM
- TGI [16]: 16.1 µM
- GI50 [17]: 3.34 µM
- TGI [17]: 12.5 µM
- GI50 [18]: 2.91 µM
- TGI [18]: 12.4 µM
- GI50 [19]: 2.82 µM
- TGI [19]: 7.73 µM
- GI50 [20]: 2.11 µM
- TGI [20]: 5.85 µM
- GI50 [21]: 5.64 µM
- TGI [21]: 18.5 µM
- GI50 [22]: 2.41 µM
- TGI [22]: 7.29 µM
- GI50 [23]: 1.85 µM
- TGI [23]: 4.19 µM
- GI50 [24]: 2.4 µM
- TGI [24]: 11.3 µM
- GI50 [25]: 2.88 µM
- TGI [25]: 12.8 µM
- GI50 [26]: 4.89 µM
- TGI [26]: 17.9 µM
- GI50 [27]: 2.96 µM
- TGI [27]: 11.4 µM
- GI50 [28]: 2.62 µM
- TGI [28]: 10.6 µM
- GI50 [29]: 2.73 µM
- TGI [29]: 10.8 µM
- GI50 [30]: 2.08 µM
- TGI [30]: 5.48 µM
- GI50 [31]: 4.82 µM
- TGI [31]: 16.1 µM
- GI50 [32]: 2.29 µM
- TGI [32]: 7.56 µM
- GI50 [33]: 4.1 µM
- TGI [33]: 16.8 µM
- GI50 [34]: 3.11 µM
- TGI [34]: 11.9 µM
- GI50 [35]: 1.97 µM
- TGI [35]: 4.56 µM
- GI50 [36]: 3.44 µM
- TGI [36]: 14.1 µM
- GI50 [37]: 3.66 µM
- TGI [37]: 12.1 µM
- GI50 [38]: 5.05 µM
- TGI [38]: 17.3 µM
- GI50 [39]: 2.58 µM
- TGI [39]: 7.71 µM
- GI50 [40]: 2.06 µM
- TGI [40]: 5.4 µM
- GI50 [41]: 2.44 µM
- TGI [41]: 7.83 µM
- GI50 [42]: 2.27 µM
- TGI [42]: 4.79 µM
- GI50 [43]: 2.48 µM
- TGI [43]: 6.79 µM
- GI50 [44]: 3.14 µM
- TGI [44]: 10.8 µM
- GI50 [45]: 1.83 µM
- TGI [45]: 4.46 µM
- GI50 [46]: 3.56 µM
- TGI [46]: 10.6 µM
- GI50 [47]: 2.87 µM
- TGI [47]: 10.4 µM
- GI50 [48]: 2.93 µM
- TGI [48]: 10.7 µM
- GI50 [49]: 2.24 µM
- TGI [49]: 6.36 µM
- GI50 [50]: 3.96 µM
- TGI [50]: 13.2 µM
- GI50 [51]: 2.87 µM
- TGI [51]: 10.4 µM
- GI50 [52]: 3.36 µM
- TGI [52]: 13.8 µM
- GI50 [53]: 1.82 µM
- TGI [53]: 5.16 µM
- GI50 [54]: 1.86 µM
- TGI [54]: 5.08 µM
- GI50 [55]: 3.36 µM
- TGI [55]: 12.8 µM
- GI50 [56]: 3.01 µM
- TGI [56]: 10.5 µM
- GI50 [57]: 1.65 µM
- TGI [57]: 4.5 µM
- GI50 [58]: 3.84 µM
- TGI [58]: 14.5 µM
